Reference: patent publication EP0674645B1, “CEPHEM COMPOUNDS WITH ANTIMICROBIAL ACTIVITY” (FUJISAWA PHARMACEUTICAL CO., LTD., priority 1992, dated 1994)
Where a name gives a salt, the structure may show the parent alone.

What was measured:
Assay in all cases: In vitro antibacterial activity, two-fold agar-plate dilution method (MIC)
Assay type in all cases: cell-based
S. aureus 2538 = details: Staphylococcus aureus, heart infusion agar, 10^6 viable cells per ml, 37°C for 20 hours
Protocol: (§1) In vitro antibacterial activity was determined by the two-fold agar-plate dilution method as described below. One loopful of an overnight culture of each test strain in Trypticase-soy broth (10^6 viable cells per ml) was streaked on heart infusion agar (HI-agar) containing graded concentrations of representative test compound, and the minimal inhibitory concentration (MIC) was expressed in terms of µg/ml after incubation at 37°C for 20 hours.

E. coli 31 = details: Escherichia coli, heart infusion agar, 10^6 viable cells per ml, 37°C for 20 hours
Protocol: as §1

P. aeruginosa 2 = details: Pseudomonas aeruginosa, heart infusion agar, 10^6 viable cells per ml, 37°C for 20 hours
Protocol: as §1

MIC (S. aureus 2538): 3.13 mg/L
MIC (E. coli 31): ≤ 0.025 mg/L
MIC (P. aeruginosa 2): 0.39 mg/L
SMILES: CCO/N=C(\C(=O)N[C@@H]1C(=O)N2C(C(=O)[O-])=C(C[n+]3ccc(N)n3CCO)CS[C@H]12)c1nsc(N)n1 [7β-[2-(5-Amino-1,2,4-thiadiazol-3-yl)-2-ethoxyiminoacetamido]-3-[3-amino-2-(2-hydroxyethyl)-1-pyrazolio]methyl-3-cephem-4-carboxylate hydrochloride (syn isomer)]
